According to patent US20250041292A1, “METHODS FOR TREATING PRIMARY IMMUNODEFICIENCY” (X4 Pharmaceuticals, Inc., priority 2021, published 2025):
“Also recorded” adds a separate entry of the source.

What was measured:
[1] = mouse, in vivo; cited from earlier work
[2] = system: WHIM mice; conditions: gavaged daily 100 mg/kg for 1 or 3 weeks; cited from earlier work
[3] = system: circulating white blood cells; conditions: 400-mg single-dose subject; cited from earlier work
[4] = system: CVID B cells; assay: Chemotaxis assay: PBMCs from a patient with CVID due to NFKB1 mutation; format: cell-based, human
Description: PBMCs from patients or healthy donors were resuspended in chemotaxis buffer (RPMI 1640 media containing 20 mM HEPES, L-glutamine, and 0.5% BSA) at 2.0×10^6 cells/mL. […] Chemotaxis was assayed immediately after treatment with drug by placing 1.0×10^5 cells in 100 μL in the upper chamber of a Transwell 24-well plate separated by a 6.5 mm insert with 3 μm pores (Corning Life Sciences, Corning, NY, USA) from the lower chamber containing 600 μL of buffer with the indicated concentration of CXCL12. After incubation for 2.5 hours at 37° C. in a 5% CO2 incubator, the cells that migrated into the lower chamber were collected by centrifugation and resuspended in the assay buffer. Cells were blocked using Human TruStain FcX (BioLegend, Inc) for 10 minutes at RT, and subsequently B lymphocyte subtyping was performed (Alexa Fluor® 488 Mouse anti-human CD19 IgG1, κ, HIB19, BioLegend, Cat #302219). A fixed number of flow cytometry counting beads (Precision Count Beads; BioLegend) were added to each sample.
Both migrated cells and counting beads were counted by flow cytometry (CytoFLEX). Data were analyzed using FCS Express software, and the total number of migrated cells was calculated, according to the counted and total number of beads present in the sample. Results are presented as percentage of migrated B cells out of the total number of B cells placed in the chemotaxis chamber.

[5] = system: peripheral WBC counts and subsets; assay: Long-term extension of phase 2 trial of mavorixafor in WHIM syndrome: WBC counts and infection rate; conditions: WHIM syndrome phase 2 extension
[6] = system: peripheral WBC counts and subsets; assay: Phase 1b trial of mavorixafor in combination with nivolumab in metastatic ccRCC: peripheral WBC counts; format: in vivo, human
[7] = system: peripheral WBC counts and subsets; assay: Phase 1b trial of mavorixafor in combination with ibrutinib in Waldenstrom's macroglobulinemia: peripheral WBC counts; format: in vivo, human; conditions: WM, interim analysis
[8] = system: peripheral WBC counts and subsets; assay: Phase 1/2 trial of mavorixafor in combination with axitinib in advanced ccRCC: peripheral WBC counts; format: in vivo, human; conditions: mavorixafor 400 mg QD + axitinib
[9] = mavorixafor 300 or 400 mg QD, after 6 months' (n=5) treatment
[10] = after 6 months' (n=5) treatment
[11] = compared to screening values, after 4 weeks (n=8)
[12] = after 6 months' treatment (n=20)

For Cc1cccnc1[C@@H]1CCC[C@H](c2nc3cccc(N4CCN(C)CC4)n3c2CO)N1C, the oral bioavailability [1] is listed as “orally bioavailable” and the “IL-7 production and B cell development” value [2] is listed as “restored IL-7 production and B cell development”.
For mavorixafor, the “increase in the number of circulating white blood cells (Leukocytosis)” value [3] is given as 2.9 fold above baseline, the “mavorixafor concentration effectively neutralizing the chemotaxis” value ([4]; CVID B cells cultured with 10 nm CXCL12, FIG. 1C) is given as 0.1 µM and the “effect on enhanced chemotaxis toward CXCL12” value ([4]; CVID patient B cells, FIG. 1C) is given as “dose-dependent normalization effect on chemotaxis; also recorded: normalizes enhanced chemotaxis”. For the same compound, the annualized infection rate ([5]; after 40 months, baseline 5.6 (SD±3.13) events) was 2.2 (SD±0.93) events, the ALC [5, 9] was 239 % of baseline and the AMC [5, 9] was 486 % of baseline. For the same compound, the ANC [5, 9] was 652 % of baseline, the “total WBC count” value [5, 9] was 339 % of baseline and the ALC ([6]; after 4 weeks (n=9)) was 141 % of baseline. The AMC ([6]; after 4 weeks (n=9)) was 179 % of baseline, the ANC ([6]; after 4 weeks (n=9)) was 143 % of baseline and the “total WBC count” value ([6]; after 4 weeks (n=9)) was 146 % of baseline. The ALC ([6]; after 6 months (n=2)) was 152 % of baseline, the AMC ([6]; after 6 months (n=2)) was 191 % of baseline and the ANC ([6]; after 6 months (n=2)) was 136 % of baseline. For the same compound, the “total WBC count” value ([6]; after 6 months (n=2)) was 147 % of baseline, the ALC [7, 10] was 106 % of baseline and the AMC [7, 10] was 172 % of baseline. The ANC [7, 10] was 192 % of baseline, the “total WBC count” value [7, 10] was 163 % of baseline and the ALC [7, 11] was 219 % of baseline. The AMC [7, 11] was 186 % of baseline, the ANC [7, 11] was 170 % of baseline and the “total WBC count” value [7, 11] was 192 % of baseline. The ALC ([8]; after 4 weeks (n=49)) was 143 % of baseline, the AMC ([8]; after 4 weeks (n=49)) was 182 % of baseline and the ANC ([8]; after 4 weeks (n=49)) was 158 % of baseline. The “total WBC count” value ([8]; after 4 weeks (n=49)) was 153 % of baseline, the ALC [8, 12] was 139 % of baseline and the AMC [8, 12] was 166 % of baseline. The ANC [8, 12] was 171 % of baseline and the “total WBC count” value [8, 12] was 159 % of baseline.
